Laboratory results from the Kinase Knowledgebase extract (Sharma et al. 2016).

biological target: EGFR (UniProt P00533); assay: Inhibition of EGFR Kinase Activity
Sequence (P00533 whole entry, looked up): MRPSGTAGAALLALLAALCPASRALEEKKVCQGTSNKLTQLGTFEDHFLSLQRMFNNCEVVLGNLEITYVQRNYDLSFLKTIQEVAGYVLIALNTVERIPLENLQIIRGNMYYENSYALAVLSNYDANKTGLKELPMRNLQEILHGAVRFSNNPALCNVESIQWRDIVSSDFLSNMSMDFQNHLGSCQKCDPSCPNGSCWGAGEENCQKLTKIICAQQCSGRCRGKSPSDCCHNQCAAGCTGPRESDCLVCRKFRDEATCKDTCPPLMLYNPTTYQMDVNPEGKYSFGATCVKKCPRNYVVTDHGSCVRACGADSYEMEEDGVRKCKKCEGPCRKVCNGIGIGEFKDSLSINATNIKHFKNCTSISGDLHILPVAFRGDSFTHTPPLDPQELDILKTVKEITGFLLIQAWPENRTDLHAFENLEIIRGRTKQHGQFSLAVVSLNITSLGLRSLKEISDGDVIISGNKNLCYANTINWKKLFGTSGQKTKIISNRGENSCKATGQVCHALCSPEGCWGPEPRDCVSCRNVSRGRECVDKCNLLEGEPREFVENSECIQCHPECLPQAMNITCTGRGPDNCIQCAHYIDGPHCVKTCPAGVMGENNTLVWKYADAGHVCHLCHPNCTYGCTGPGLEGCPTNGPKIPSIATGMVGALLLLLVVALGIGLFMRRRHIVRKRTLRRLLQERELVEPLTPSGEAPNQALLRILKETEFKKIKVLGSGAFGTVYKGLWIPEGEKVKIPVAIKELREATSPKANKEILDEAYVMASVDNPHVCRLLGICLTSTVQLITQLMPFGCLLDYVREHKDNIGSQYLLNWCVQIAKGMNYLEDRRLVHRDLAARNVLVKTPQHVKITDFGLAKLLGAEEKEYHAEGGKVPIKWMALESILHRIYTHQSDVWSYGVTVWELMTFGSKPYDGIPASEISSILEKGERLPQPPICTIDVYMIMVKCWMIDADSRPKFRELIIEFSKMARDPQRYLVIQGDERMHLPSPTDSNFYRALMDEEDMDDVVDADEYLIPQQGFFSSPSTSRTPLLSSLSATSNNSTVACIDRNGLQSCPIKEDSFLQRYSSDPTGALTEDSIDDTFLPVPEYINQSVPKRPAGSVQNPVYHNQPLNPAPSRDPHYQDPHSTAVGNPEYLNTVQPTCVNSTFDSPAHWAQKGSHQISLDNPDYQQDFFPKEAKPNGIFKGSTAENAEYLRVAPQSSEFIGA

IC50, < 50 µM:
CC#CC(=O)Nc1cc(Nc2ncnc(Nc3ccc4c(cnn4Cc4ccccc4)c3)n2)ccc1OC, C=CC(=O)Nc1cccc(Nc2ncnc(N(CC)c3cccc(CC(=O)OC)c3)n2)c1, C=CC(=O)Nc1ccc(Nc2ncnc(N(C)c3ccc4c(ccn4Cc4ccccc4)c3)n2)cc1, CC#CC(=O)Nc1cccc(Nc2ncnc(Nc3ccc(OC)c(OC)c3)n2)c1, C=CC(=O)Nc1cccc(Nc2ncnc(N(CC)c3cc(Cl)cc4ccccc34)n2)c1, CC#CC(=O)Nc1cccc(Nc2ncnc(N(C)c3ccc(OC)c(OC)c3)n2)c1, C=CCN(c1ccc(OCc2ccccc2)cc1)c1ncnc(Nc2cccc(NC(=O)C=C)c2)n1, C=CCN(c1ccc(OCCC)c(OCCC)c1)c1ncnc(Nc2ccc(NC(=O)C=C)cc2)n1, C=CC(=O)Nc1cccc(Nc2ncnc(N(C)c3ccc(C(=O)OC)cc3)n2)c1, CC#CC(=O)Nc1cccc(Nc2ncnc(N(CC)C3CC3c3ccccc3)n2)c1 (stereo unspecified), C=CC(=O)Nc1ccc(Nc2ncnc(NC3CC3c3ccc(Cl)cc3)n2)cc1 (stereo unspecified), CC#CC(=O)Nc1cccc(Nc2ncnc(N(C)c3ccc(OCCOC)c(OC)c3)n2)c1, C=CC(=O)Nc1ccc(Nc2ncnc(Nc3ccc4c(ccn4Cc4ccccc4)c3)n2)cc1, CC#CC(=O)Nc1cc(Nc2ncnc(N(C)c3ccc(OCc4ccccc4)c(Cl)c3)n2)ccc1OCCCC1CCN(C)CC1, C=C/C=C/C(=O)Nc1cccc(Nc2ncnc(Nc3ccc4c(ccn4Cc4ccccc4)c3)n2)c1, C=CC(=O)Nc1cccc(Nc2ncnc(N(C)C3CC3c3ccc(Cl)cc3)n2)c1 (stereo unspecified), C=CC(=O)N(CCCN1CCOCC1)c1cccc(Nc2ncnc(Nc3cccc(Cl)c3)n2)c1, C=CC(=O)Nc1ccc(Nc2ncnc(N(C)n3c(=O)[nH]c4ccccc43)n2)cc1, O=C(/C=C/c1cccc(Nc2ncnc(Nc3ccc4c(cnn4Cc4ccccc4)c3)n2)c1)NCCCN1CCOCC1, C=CC(=O)Nc1cccc(Nc2ncnc(N(CC)C3CC3c3ccc(Cl)cc3)n2)c1 (stereo unspecified), C=CC(=O)Nc1cccc(Nc2ncnc(Nc3ccc(OCc4ccc(Cl)c(Cl)c4)c(C(F)(F)F)c3)n2)c1, CC#CC(=O)Nc1cccc(Nc2ncnc(N(C)c3cccc(C)c3)n2)c1, C=CC(=O)Nc1ccc(Nc2ncnc(N(C)c3ccc(OCc4ccccc4)cc3)n2)cc1, CC#CC(=O)Nc1cccc(Nc2ncnc(N(CC)c3ccc(F)c(Cl)c3)n2)c1, C=CC(=O)Nc1cccc(Nc2ncnc(Nn3c(=O)[nH]c4ccccc43)n2)c1, C=CC(=O)Nc1ccc(Nc2ncnc(Nc3ccc(OCc4ccccc4)cc3)n2)cc1, C=CC(=O)Nc1cccc(Nc2ncnc(N(C)c3ccc(F)c(Cl)c3)n2)c1, CC#CC(=O)Nc1cccc(Nc2ncnc(Nc3ccc(F)c(Cl)c3)n2)c1, C=CC(=O)N(CCCN1CCOCC1)c1cccc(Nc2ncnc(N(C)C3CC3c3ccccc3)n2)c1 (stereo unspecified), CC#CC(=O)Nc1cccc(Nc2ncnc(Nc3ccc(OCCO)cc3)n2)c1, C=CCN(c1ncnc(Nc2cccc(NC(=O)C=C)c2)n1)C1CC1c1ccccc1 (stereo unspecified), C=CC(=O)Nc1cc(Nc2ncnc(Nc3ccc4c(ccn4Cc4ccccc4)c3)n2)ccc1OCCCC1CCN(C)CC1, C=CC(=O)Nc1cc(Nc2ncnc(NN3CCCc4ccc(Cl)cc43)n2)ccc1OCCCC1CCN(C)CC1, C=CC(=O)Nc1ccc(Nc2ncnc(NN3CCCc4cc(Cl)ccc43)n2)cc1, CC#CC(=O)Nc1cccc(Nc2ncnc(N(CC)c3ccc4c(cnn4Cc4ccccc4)c3)n2)c1, C=CC(=O)Nc1cccc(Nc2ncnc(Nc3ccc(OCc4ccccc4)cc3)n2)c1, C#CCC(=O)Nc1cccc(Nc2ncnc(NN3CCCc4ccc(C(F)(F)F)cc43)n2)c1, C=CC(=O)Nc1cccc(Nc2ncnc(Nc3ccc(OCCC)c(OCCC)c3)n2)c1, C=CC(=O)Nc1cccc(Nc2ncnc(N(CC)c3ccc(C(=O)OC)cc3)n2)c1, C=CCN(c1cccc(C(N)=O)c1)c1ncnc(Nc2ccc(NC(=O)C=C)cc2)n1, CC#CC(=O)Nc1cccc(Nc2ncnc(N(CC)c3cc(Cl)cc4ccccc34)n2)c1, C=CC(=O)Nc1cccc(Nc2ncnc(N(C)c3ccc4c(cnn4Cc4ccccn4)c3)n2)c1, C=CC(=O)Nc1cccc(Nc2ncnc(N(C)c3cccc4ccccc34)n2)c1, C=CC(=O)N(CCCN1CCOCC1)c1cccc(Nc2ncnc(Nc3ccc(C(=O)OC)cc3)n2)c1, C=CC(=O)Nc1cccc(Nc2ncnc(Nc3cccc(Br)c3)n2)c1, C=CCN(c1ccc(OCCC)c(OCCC)c1)c1ncnc(Nc2cccc(NC(=O)C=C)c2)n1, C=CCN(c1cccc(S(=O)(=O)c2ccc([N+](=O)[O-])cc2)c1)c1ncnc(Nc2cccc(NC(=O)C=C)c2)n1, CC#CC(=O)Nc1cc(Nc2ncnc(N(C)c3cccc(Cl)c3)n2)ccc1OCCCC1CCN(C)CC1, C=CC(=O)Nc1cccc(Nc2ncnc(NC3CC3c3ccccc3)n2)c1 (stereo unspecified), CC#CC(=O)Nc1cccc(Nc2ncnc(N(CC)n3c(=O)[nH]c4ccccc43)n2)c1, C=CC(=O)Nc1ccc(Nc2ncnc(N(CC)c3ccc(C(=O)OC)cc3)n2)cc1, C=CC(=O)Nc1ccc(Nc2ncnc(Nc3cccc(Cl)c3)n2)cc1, C=CCN(c1ncnc(Nc2cccc(NC(=O)C#CC)c2)n1)c1cc(Cl)ccc1C, CC#CC(=O)Nc1cccc(Nc2ncnc(NC3CC3c3ccc(Cl)cc3)n2)c1 (stereo unspecified), C=CC(=O)Nc1cc(Nc2ncnc(Nc3ccc4c(ccn4Cc4ccccc4)c3)n2)ccc1OCCCN1CCOCC1, C=CC(=O)Nc1ccc(Nc2ncnc(N(CC)c3cccc(CC(=O)OC)c3)n2)cc1, CC#CC(=O)Nc1cccc(Nc2ncnc(NC3CC3c3ccccc3)n2)c1 (stereo unspecified), CC#CC(=O)Nc1cccc(Nc2ncnc(Nc3ccc(OCCOC)c(OC)c3)n2)c1, C=CC(=O)Nc1ccc(Nc2ncnc(N(C)C3CC3c3ccc(Cl)cc3)n2)cc1 (stereo unspecified), C=CC(=O)N(CCCN1CCOCC1)c1cccc(Nc2ncnc(Nc3cc(Cl)cc4ccccc34)n2)c1, C#CCC(=O)Nc1cccc(Nc2ncnc(NN3CCCc4ccc(Cl)cc43)n2)c1, C=CCN(c1ccc(OCc2ccccc2)cc1)c1ncnc(Nc2ccc(NC(=O)C=C)cc2)n1, C=CC(=O)Nc1cccc(Nc2ncnc(Nc3ccc(OCCOC)c(OC)c3)n2)c1, CC#CC(=O)Nc1cccc(Nc2ncnc(Nc3cccc(C)c3)n2)c1, C=CC(=O)Nc1ccc(Nc2ncnc(N(CC)n3c(=O)n(C(=O)C(C)(C)C)c4ccccc43)n2)cc1, C=CC(=O)Nc1ccc(Nc2ncnc(N(C)c3ccc(OCc4ccccc4)c(Cl)c3)n2)cc1, CC#CC(=O)Nc1cccc(Nc2ncnc(N(C)c3ccc(C(=O)OC)cc3)n2)c1, C=CC(=O)N(CCCN1CCOCC1)c1cccc(Nc2ncnc(Nc3ccc(OCc4ccccc4)cc3)n2)c1, C=CCN(c1ccc(OC)c(OC)c1)c1ncnc(Nc2ccc(NC(=O)C=C)cc2)n1, CC#CC(=O)Nc1cccc(Nc2ncnc(N(C)c3cc(Cl)ccc3C)n2)c1, C=CCN(c1cc(OC)c(OC)c(OCCN2CCOCC2)c1)c1ncnc(Nc2cccc(NC(=O)C=C)c2)n1, C=CCN(c1ccc(OC)c(OCCOC)c1)c1ncnc(Nc2cccc(NC(=O)C#CC)c2)n1, C=CC(=O)Nc1ccc(Nc2ncnc(NN3CCCc4ccc(C(F)(F)F)cc43)n2)cc1, C=CC(=O)Nc1cccc(Nc2ncnc(N3CCCc4ccc(Cl)cc43)n2)c1, C=CCN(c1ncnc(Nc2ccc(NC(=O)C=C)cc2)n1)c1cc(Cl)cc2ccccc12, C=CC(=O)Nc1ccc(Nc2ncnc(N(C)n3c(=O)n(C(=O)C(C)(C)C)c4ccccc43)n2)cc1, C=CC(=O)Nc1cc(Nc2ncnc(Nc3cccc(Cl)c3)n2)ccc1OCCCN1CCOCC1, CC#CC(=O)Nc1cccc(Nc2ncnc(Nc3cccc(C(N)=O)c3)n2)c1, C=CCN(c1cccc(Cl)c1)c1ncnc(Nc2cccc(NC(=O)C=C)c2)n1, C=CC(=O)Nc1cccc(Nc2ncnc(Nc3ccc(OCc4cccc(F)c4)c(Cl)c3)n2)c1, C=CCN(c1ccc(F)c(Cl)c1)c1ncnc(Nc2cccc(NC(=O)C#CC)c2)n1, C=CC(=O)Nc1cccc(Nc2ncnc(Nc3ccc(OCc4ccccc4)c(Cl)c3)n2)c1, C=CCN(c1ccc(F)c(Cl)c1)c1ncnc(Nc2ccc(NC(=O)C=C)cc2)n1, C=CCN(c1cccc(C(N)=O)c1)c1ncnc(Nc2cccc(NC(=O)C#CC)c2)n1, C=CC(=O)Nc1ccc(Nc2ncnc(N(C)c3ccc4c(cnn4Cc4ccccc4)c3)n2)cc1OC, C=CCN(c1ccc2c(cnn2Cc2ccccc2)c1)c1ncnc(Nc2cccc(NC(=O)C=C)c2)n1
